Test results reported in ChEMBL document CHEMBL5303304, “EUbOPEN Chemogenomics Library - IncuCyte” (2023).

Key:
Assay type in all cases: toxicity, cell-based
HEK-293T = assay: Incucyte cell viability with HEK293T; settings: human, 10 µM, compound concentration 10 uM
Fibroblast = assay: Incucyte cell viability with human fibroblast; settings: 10 µM, compound concentration 10 uM
U2OS = assay: Incucyte cell viability with U2OS; settings: human, 10 µM, compound concentration 10 uM
Further: unitless GR value; below 1 slowed growth and below 0 cell loss.

| Structure (SMILES) | Growth Rate (HEK-293T; 0 h, replicate number 1) | Growth Rate (HEK-293T; 12 h, replicate number 2) | Growth Rate (HEK-293T; 18 h, replicate number 2) | Growth Rate (Fibroblast; 0 h, replicate number 2) | Growth Rate (Fibroblast; 6 h, replicate number 1) | Growth Rate (Fibroblast; 6 h, replicate number 2) | Growth Rate (Fibroblast; 24 h, replicate number 1) | Growth Rate (Fibroblast; 24 h, replicate number 2) | Growth Rate (U2OS; 6 h, replicate number 1) | Growth Rate (U2OS; 6 h, replicate number 2) | Growth Rate (U2OS; 12 h, replicate number 2) | Growth Rate (U2OS; 18 h, replicate number 2) | Growth Rate (U2OS; 24 h, replicate number 2) | Growth Rate (HEK-293T; 0 h, replicate number 2) | Growth Rate (HEK-293T; 12 h, replicate number 1) | Growth Rate (HEK-293T; 18 h, replicate number 1) | Growth Rate (HEK-293T; 24 h, replicate number 1) | Growth Rate (Fibroblast; 12 h, replicate number 2) | Growth Rate (Fibroblast; 18 h, replicate number 2) | Growth Rate (U2OS; 12 h, replicate number 1) | other results |
| --- | --- | --- | --- | --- | --- | --- | --- | --- | --- | --- | --- | --- | --- | --- | --- | --- | --- | --- | --- | --- | --- |
| CSc1nc2c(c(=O)n(C)c(=O)n2C)n1C | 0.12 | 0.78 | 1 | -0.52 | 0.03 | -0.57 | 0.71 | 0.92 | 0.84 | 0.49 | 0.74 | 0.86 | 0.97 |  |  |  |  |  |  |  | Growth Rate (HEK-293T; 6 h, replicate number 2): -0.14; Growth Rate (Fibroblast; 0 h, replicate number 1): -1; Growth Rate (Fibroblast; 12 h, replicate number 1): 0.58; Growth Rate (Fibroblast; 18 h, replicate number 1): 0.87; Growth Rate (U2OS; 0 h, replicate number 1): 0.57 |
| Cc1[nH]nc(C(F)(F)F)c1Cc1sc2c(c1C(=O)N1C[C@](C)(O)CO1)c(=O)n(C)c(=O)n2C(C)C [AZD3965] | -0.63 | 0.43 | 0.22 |  | 0.95 |  | 0.9 | 0.8 |  |  | 0.71 | 0.69 | 0.83 | -0.81 | 0.53 | 0.17 | 0.11 | 0.69 | 0.97 | 0.92 | Growth Rate (HEK-293T; 24 h, replicate number 2): 0.21; Growth Rate (U2OS; 24 h, replicate number 1): 0.75 |
| Cc1c(CCC(=O)O)cccc1NC(=O)[C@@H](c1ccc(-c2cncc(Cl)c2)c(F)c1)C1CCCC1 | -0.19 |  |  |  |  | -0.66 |  | 0.87 | 0.95 |  |  |  |  | -0.54 |  |  |  | 0.3 | 0.9 | 0.73 | Growth Rate (HEK-293T; 6 h, replicate number 2): 0.98; Growth Rate (U2OS; 0 h, replicate number 1): 0.68 |
| COc1ccc2c(O[C@@H]3C[C@H]4C(=O)N[C@]5(C(=O)NS(=O)(=O)C6(C)CC6)CC5/C=C\CCCCC[C@H](NC(=O)c5ccn(C)n5)C(=O)N4C3)cc(OC(C)C)nc2c1C (stereo not given in full) | 1 |  |  | 0.85 |  | -0.88 | 0.9 | 0.88 |  | 0.93 | 0.63 | 0.79 | 0.78 | 0.49 | 0.8 | 0.9 | 0.9 |  | 0.84 |  | Growth Rate (HEK-293T; 6 h, replicate number 1): 0.89; Growth Rate (Fibroblast; 18 h, replicate number 1): 0.9; Growth Rate (U2OS; 0 h, replicate number 2): -0.46; Growth Rate (U2OS; 18 h, replicate number 1): 0.99 |
| CCN(C(=O)CO)[C@H]1CN(/C(=N\C#N)Nc2cccc(OC(F)F)c2)N=C1c1ccc(Cl)c(Cl)c1 |  |  |  | 0.47 |  | 0.31 |  | 0.98 | 1 |  |  |  |  | -0.6 |  | 0.96 | 0.91 | 0.8 |  |  | Growth Rate (HEK-293T; 6 h, replicate number 2): 0.79; Growth Rate (U2OS; 18 h, replicate number 1): -0.52; Growth Rate (U2OS; 24 h, replicate number 1): -0.49 |
| Cl.O=S(=O)(c1cccc2c(I)cccc12)N1CCCNCC1 |  |  |  |  | -1 | -0.05 |  | 0.96 |  | 0.86 |  |  |  |  | 0.3 | 0.81 | 0.89 | 0.87 |  |  | Growth Rate (HEK-293T; 6 h, replicate number 1): -0.39; Growth Rate (HEK-293T; 24 h, replicate number 2): 0.88; Growth Rate (U2OS; 0 h, replicate number 1): -1 |
| CCN(C(=O)c1cc(F)ccc1Oc1cncnc1N1CC2(CCN(C[C@H]3CC[C@H](NS(=O)(=O)CC)CC3)CC2)C1)C(C)C [REVUMENIB] | -0.33 | 0.53 | 0.48 | 0.3 | 0.15 | 0.81 | 0.88 | 0.93 | 0.62 | 0.45 | 0.79 | 0.76 | 0.67 | 0.43 |  |  |  |  | 0.88 | 0.8 | Growth Rate (HEK-293T; 6 h, replicate number 2): 0.24; Growth Rate (HEK-293T; 24 h, replicate number 2): 0.38; Growth Rate (Fibroblast; 12 h, replicate number 1): 0.94; Growth Rate (Fibroblast; 18 h, replicate number 1): 0.79; Growth Rate (U2OS; 0 h, replicate number 1): 0.19; Growth Rate (U2OS; 0 h, replicate number 2): 0.45; Growth Rate (U2OS; 18 h, replicate number 1): 0.77; Growth Rate (U2OS; 24 h, replicate number 1): 0.76 |
| CC(=O)c1c(C)c2cnc(Nc3ccc(N4CCN(CCCCNC(=O)COc5cccc6c5C(=O)N(C5CCC(=O)NC5=O)C6=O)CC4)cn3)nc2n(C2CCCC2)c1=O (stereo not given) |  | 0.85 | 0.98 | 0.14 | 0.72 |  | 0.88 |  |  | 0.97 |  |  |  |  | 0.82 | 0.85 | 0.91 |  |  | 0.99 | Growth Rate (HEK-293T; 6 h, replicate number 1): 0.75; Growth Rate (U2OS; 0 h, replicate number 2): 0.65; Growth Rate (U2OS; 24 h, replicate number 1): 1 |
| O=C1NC(c2cccc([N+](=O)[O-])c2)=CCN1c1ccccc1O [ICILLIN] |  |  |  | -0.28 | -0.8 | 0.04 |  | 0.91 |  | 0.82 | 0.76 | 0.96 | 0.93 | 0.85 |  |  |  | 0.48 | 0.89 |  | Growth Rate (Fibroblast; 0 h, replicate number 1): 0.99; Growth Rate (Fibroblast; 12 h, replicate number 1): 0.02; Growth Rate (U2OS; 0 h, replicate number 2): 1 |
| CCCCc1oc2ccccc2c1C(=O)c1cc(I)c(OCCN(CC)CC)c(I)c1.Cl [AMIODARONE HYDROCHLORIDE] |  | -0.11 | 0.1 |  |  | -0.16 | -0.01 | -0.43 | 0.43 |  |  |  |  | -0.99 | 0.36 | 0.5 | 0.45 | -0.27 | -0.44 | 0.98 | Growth Rate (HEK-293T; 6 h, replicate number 1): 0.31; Growth Rate (HEK-293T; 6 h, replicate number 2): -0.04; Growth Rate (HEK-293T; 24 h, replicate number 2): 0.24; Growth Rate (Fibroblast; 0 h, replicate number 1): 0.24; Growth Rate (Fibroblast; 12 h, replicate number 1): 0.4; Growth Rate (Fibroblast; 18 h, replicate number 1): -0.02; Growth Rate (U2OS; 0 h, replicate number 1): 0.24; Growth Rate (U2OS; 18 h, replicate number 1): 0.77 |
| C[C@@]1(Cc2ccc(C#N)cc2)C(=O)N(c2cc(Cl)cc(Cl)c2)c2ncc(C(=O)NC3(c4nc(C5CCC5)no4)CC3)n21 [BI 9446] | 0.53 | 0.74 | 0.52 | -0.17 | 0.23 | -0.58 | 0.4 | 0.41 | 0.76 | 1 | 0.61 | 0.75 | 0.94 |  | 0.15 | 0.2 | 0.21 | 0.12 | 0.52 | 0.77 | Growth Rate (HEK-293T; 6 h, replicate number 1): 0.51; Growth Rate (HEK-293T; 24 h, replicate number 2): 0.48; Growth Rate (Fibroblast; 0 h, replicate number 1): -1; Growth Rate (Fibroblast; 12 h, replicate number 1): 0.61; Growth Rate (Fibroblast; 18 h, replicate number 1): 0.41; Growth Rate (U2OS; 0 h, replicate number 2): 0.34; Growth Rate (U2OS; 18 h, replicate number 1): 0.83; Growth Rate (U2OS; 24 h, replicate number 1): 0.67 |
